Experimental data reported in PubChem BioAssay AID1963975 (Molecular Pharmacology Branch, DTP, NCI, 2024).

System: 624824-186-R-J2-PDC multicell spheroids, viability
Assay: Anticancer human tumor 624824-186-R-J2-PDC patient-derived colon adenocarcinoma cell line growth inhibition [PI3K]
Conditions: for IC50: curve of first compound; for viability, T/C: stronger effect = lower value
Method in brief: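 Combination activity was assessed by viability in multicellular tumor spheroids carrying HUVEC and MSC components. Agents were tested with PI3K inhibitors from a Cmax-based top dose (or 10 microM) downward in half-log increments.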

[1] = second compound 0.0316 µM, first compound 0.0316 µM
[2] = second compound 0.0316 µM, first compound 0.1 µM
[3] = second compound 0.0316 µM, first compound 0.316 µM
[4] = second compound 0.0316 µM, first compound 1 µM
[5] = second compound 0.0316 µM, first compound 3.16 µM
[6] = second compound 0.0316 µM, first compound 10 µM
[7] = second compound 0.1 µM, first compound 0.0316 µM
[8] = second compound 0.1 µM, first compound 0.1 µM
[9] = second compound 0.1 µM, first compound 0.316 µM
[10] = second compound 0.1 µM, first compound 1 µM
[11] = second compound 0.1 µM, first compound 3.16 µM
[12] = second compound 0.1 µM, first compound 10 µM
[13] = second compound 0.316 µM, first compound 0.0316 µM
[14] = second compound 0.316 µM, first compound 0.1 µM
[15] = second compound 0.316 µM, first compound 0.316 µM
[16] = second compound 0.316 µM, first compound 1 µM
[17] = second compound 0.316 µM, first compound 3.16 µM
[18] = second compound 0.316 µM, first compound 10 µM
[19] = second compound 1 µM, first compound 0.0316 µM
[20] = second compound 1 µM, first compound 0.1 µM
[21] = second compound 1 µM, first compound 0.316 µM
[22] = second compound 1 µM, first compound 1 µM
[23] = second compound 1 µM, first compound 3.16 µM
[24] = second compound 1 µM, first compound 10 µM
[25] = second compound 3.16 µM, first compound 0.0316 µM
[26] = second compound 3.16 µM, first compound 0.1 µM
[27] = second compound 3.16 µM, first compound 0.316 µM
[28] = second compound 3.16 µM, first compound 1 µM
[29] = second compound 3.16 µM, first compound 3.16 µM
[30] = second compound 3.16 µM, first compound 10 µM
[31] = second compound 10 µM, first compound 0.0316 µM
[32] = second compound 10 µM, first compound 0.1 µM
[33] = second compound 10 µM, first compound 0.316 µM
[34] = second compound 10 µM, first compound 1 µM
[35] = second compound 10 µM, first compound 3.16 µM
[36] = second compound 10 µM, first compound 10 µM
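Also: spheroids exposed to agents for 7 days before viability read.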
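For viability, T/C in this document: 100% = DMSO vehicle treated spheroids.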

SMILES: C[C@@H](NC(=O)c1ncnc(N)c1Cl)c1ncc(C(=O)Nc2cc(C(F)(F)F)c(Cl)cn2)s1 + Cc1nc(NC(=O)N2CCCC2C(N)=O)sc1-c1ccnc(C(C)(C)C(F)(F)F)c1
- IC50 (second compound 0.0316 µM): > 10 µM
- IC50 (second compound 0.1 µM): > 10 µM
- IC50 (second compound 0.316 µM): > 10 µM
- IC50 (second compound 1 µM): > 10 µM
- IC50 (second compound 3.16 µM): > 10 µM
- IC50 (second compound 10 µM): 1.17 µM
- viability, T/C [1]: 103%
- viability, T/C [2]: 103%
- viability, T/C [3]: 91.8%
- viability, T/C [4]: 84.2%
- viability, T/C [5]: 73.2%
- viability, T/C [6]: 82.4%
- viability, T/C [7]: 80.8%
- viability, T/C [8]: 84.2%
- viability, T/C [9]: 85.7%
- viability, T/C [10]: 76.1%
- viability, T/C [11]: 84.2%
- viability, T/C [12]: 85.5%
- viability, T/C [13]: 106%
- viability, T/C [14]: 99.8%
- viability, T/C [15]: 87.7%
- viability, T/C [16]: 63.5%
- viability, T/C [17]: 76.2%
- viability, T/C [18]: 81.1%
- viability, T/C [19]: 101%
- viability, T/C [20]: 96.1%
- viability, T/C [21]: 102%
- viability, T/C [22]: 70.7%
- viability, T/C [23]: 68.3%
- viability, T/C [24]: 71.5%
- viability, T/C [25]: 87.4%
- viability, T/C [26]: 92.6%
- viability, T/C [27]: 88.8%
- viability, T/C [28]: 70.7%
- viability, T/C [29]: 58.1%
- viability, T/C [30]: 49.7%
- viability, T/C [31]: 78%
- viability, T/C [32]: 80.4%
- viability, T/C [33]: 63.4%
- viability, T/C [34]: 54.7%
- viability, T/C [35]: 38%
- viability, T/C [36]: 40.1%

SMILES: Cn1ncc(Cl)c1-c1cc(C(=O)NC(CN)Cc2cccc(F)c2)sc1Cl (stereo unspecified) + Cc1nc(NC(=O)N2CCCC2C(N)=O)sc1-c1ccnc(C(C)(C)C(F)(F)F)c1
- IC50 (second compound 0.0316 µM): > 10 µM
- IC50 (second compound 0.1 µM): 9.82 µM
- IC50 (second compound 0.316 µM): 8.5 µM
- IC50 (second compound 1 µM): 8.01 µM
- IC50 (second compound 3.16 µM): 4.42 µM
- IC50 (second compound 10 µM): 3.02 µM
- viability, T/C [1]: 58.2%
- viability, T/C [2]: 80.2%
- viability, T/C [3]: 77.9%
- viability, T/C [4]: 82.1%
- viability, T/C [5]: 62.6%
- viability, T/C [6]: 56.1%
- viability, T/C [7]: 78.9%
- viability, T/C [8]: 84.3%
- viability, T/C [9]: 70.5%
- viability, T/C [10]: 75.2%
- viability, T/C [11]: 64.9%
- viability, T/C [12]: 49.2%
- viability, T/C [13]: 88.5%
- viability, T/C [14]: 79%
- viability, T/C [15]: 87%
- viability, T/C [16]: 80%
- viability, T/C [17]: 63.5%
- viability, T/C [18]: 47.8%
- viability, T/C [19]: 70.6%
- viability, T/C [20]: 77.8%
- viability, T/C [21]: 86.6%
- viability, T/C [22]: 74%
- viability, T/C [23]: 63.5%
- viability, T/C [24]: 46.8%
- viability, T/C [25]: 84.1%
- viability, T/C [26]: 84.2%
- viability, T/C [27]: 71.1%
- viability, T/C [28]: 62.8%
- viability, T/C [29]: 62.6%
- viability, T/C [30]: 34.7%
- viability, T/C [31]: 80.7%
- viability, T/C [32]: 73.3%
- viability, T/C [33]: 64%
- viability, T/C [34]: 66.8%
- viability, T/C [35]: 49.1%
- viability, T/C [36]: 30.9%

SMILES: Cn1ncnc1[C@H]1c2n[nH]c(=O)c3cc(F)cc(c23)N[C@@H]1c1ccc(F)cc1 + Cc1nc(NC(=O)N2CCCC2C(N)=O)sc1-c1ccnc(C(C)(C)C(F)(F)F)c1
- IC50 (second compound 0.0316 µM): > 0.1 µM
- IC50 (second compound 0.1 µM): > 0.1 µM
- IC50 (second compound 0.316 µM): > 0.1 µM
- IC50 (second compound 1 µM): > 0.1 µM
- IC50 (second compound 3.16 µM): > 0.1 µM
- IC50 (second compound 10 µM): > 0.1 µM
- viability, T/C (second compound 0.0316 µM, first compound 0.000316 µM): 89.5%
- viability, T/C (second compound 0.0316 µM, first compound 0.001 µM): 79.8%
- viability, T/C (second compound 0.0316 µM, first compound 0.00316 µM): 79.5%
- viability, T/C (second compound 0.0316 µM, first compound 0.01 µM): 106%
- viability, T/C [1]: 89%
- viability, T/C [2]: 101%
- viability, T/C (second compound 0.1 µM, first compound 0.000316 µM): 91.8%
- viability, T/C (second compound 0.1 µM, first compound 0.001 µM): 87.4%
- viability, T/C (second compound 0.1 µM, first compound 0.00316 µM): 105%
- viability, T/C (second compound 0.1 µM, first compound 0.01 µM): 80.9%
- viability, T/C [7]: 70.2%
- viability, T/C [8]: 86.4%
- viability, T/C (second compound 0.316 µM, first compound 0.000316 µM): 95.4%
- viability, T/C (second compound 0.316 µM, first compound 0.001 µM): 92.9%
- viability, T/C (second compound 0.316 µM, first compound 0.00316 µM): 101%
- viability, T/C (second compound 0.316 µM, first compound 0.01 µM): 88%
- viability, T/C [13]: 108%
- viability, T/C [14]: 80.4%
- viability, T/C (second compound 1 µM, first compound 0.000316 µM): 88.3%
- viability, T/C (second compound 1 µM, first compound 0.001 µM): 102%
- viability, T/C (second compound 1 µM, first compound 0.00316 µM): 78.1%
- viability, T/C (second compound 1 µM, first compound 0.01 µM): 97.1%
- viability, T/C [19]: 101%
- viability, T/C [20]: 86.3%
- viability, T/C (second compound 3.16 µM, first compound 0.000316 µM): 86.8%
- viability, T/C (second compound 3.16 µM, first compound 0.001 µM): 78.6%
- viability, T/C (second compound 3.16 µM, first compound 0.00316 µM): 76.3%
- viability, T/C (second compound 3.16 µM, first compound 0.01 µM): 82.9%
- viability, T/C [25]: 92.4%
- viability, T/C [26]: 82.1%
- viability, T/C (second compound 10 µM, first compound 0.000316 µM): 87.5%
- viability, T/C (second compound 10 µM, first compound 0.001 µM): 84.7%
- viability, T/C (second compound 10 µM, first compound 0.00316 µM): 80.3%
- viability, T/C (second compound 10 µM, first compound 0.01 µM): 71.8%
- viability, T/C [31]: 77.3%
- viability, T/C [32]: 84.8%
